From patent US20120045393A1 (priority 2009, published 2012)

Tests used:
[1] = test system: EFO-27 human ovarian cancer cells (LHRH binding sites); experiment: Direct binding/uptake of 177Lu-labeled LHRH-II analogs to EFO-27 cells; settings: 177Lu-labeled, 4° C., 1 h, single concentration
Method: All reagents and chemicals were obtained from Sigma unless otherwise specified. LHRH analogs and ^177Lu-LHRH-II analogs were prepared by in-house chemists, as described elsewhere in the application. ^177Lu-LHRH-II analogs were not HPLC purified, as they had been prepared using formulation conditions that yielded high RCP without the need for purification. […] The HPLC-purified material was taken in a stabilizing buffer containing 5% lactose, 0.1% L-cysteine hydrochloride and 800 KIU/mL aprotinin and received as a lyophilized product and stored at −70° C. This was reconstituted in distilled water, aliquoted and stored at −70° C. The radioactivity was determined using Microplate Scintillation counter (Wallac Microbeta Trilux).
For the binding assay, EFO-27 cells were seeded onto 96-well clear flat-bottom tissue-culture-treated plates at 15,000/well density in the growth medium and used for assay on day 2 post-seeding. Cells were routinely checked for confluence and contamination and cell count was done occasionally to ensure consistency in cell numbers.
Direct Binding: Direct binding studies were carried out by incubating appropriate ^177Lu-labeled compounds with EFO-27 cells at 4° C. for 1 h followed by washing off the unbound radioactivity. Non-specific binding was determined by incubating the ^177Lu-LHRH-II analogs in the presence of a large excess (30 uM) of cold (unlabeled) LHRH-II analogs. A 96-well plate format was used.

[2] = mouse, in vivo, 10 min
Method: In addition, at both 2 and 10 min post injection, blood samples from two mice were collected. The collected blood samples at each time point were pooled and treated with two times their volume with ice-cooled methanol, and then the mixture was centrifuged at 4° C. for 20 min at 20,000×g to precipitate proteins. The supernatant was collected and the organic solvent in the solution was removed by speed-vacuum for 60 min. The concentrated supernatant was assayed by HPLC.

[3] = In vitro metabolic stability in mouse liver homogenate at 37° C.; format: in vitro ADME
Method: Livers from 10 female Tac:NCr:Foxn1^nu/nu mice were excised, rinsed with ice cold PBS (no Ca^++ or Mg^++) and weighed. The tissues were minced with scissors in Petri dishes on ice with Tris buffered saline (Pierce BupH™ Tris buffered saline packs, #28376; 25 mM Tris, 150 mM NaCl, pH 7.2). After mincing, the tissues were dounce homogenized, and the total volume adjusted with ice cold Tris buffer (4 mL for every gram of excised tissue). The homogenate was centrifuged at ˜4000×g for 10 min at 4° C. The supernatants were aliquoted into Eppendorf tubes on ice (200 and 100 μl volumes) and stored at −80° C. Kidney homogenates were similarly prepared. […] The mixture was centrifuged at 4° C. for 20 min at 20,000×g to precipitate the protein; 10 μL (˜7.6 μCi) of the supernatant was injected into the HPLC for the analysis. […] Peaks at these retention times were also observed in the in vivo plasma sample (FIG. 1). […] After 0 and 60 min, the sample was removed from the incubator, immediately cooled on ice and 2 μL of 10 mM EDTA and 0.2 mL of ice-cooled MeOH were added, mixing after each addition. The proteins in the sample were separated by centrifugation at 14,000 rpm for 20 min. The supernatant was harvested and, in the samples spiked with the ^177Lu-analog, the radioactivity was measured using a Capintec dose calibrator to determine recovery. The sample was then analyzed by HPLC. […] After 0 and 60 min, the sample was removed from the incubator, immediately cooled on ice and 2 μL of 10 mM EDTA and 0.24 mL of ice-cooled methanol was added, mixing after each addition. The proteins in the sample were separated by centrifugation at 14,000 rpm for 20 min. The supernatant was collected and analyzed by LC/MS as described earlier herein.

EFO-27 cells = experiment: Internalization/efflux studies in EFO-27 cells; format: cell-based, human
How it was run: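 EFO-27 cells incubated 40 min at 37° C with ^177Lu-LHRH II or ^125I-LHRH II ([^125I-Tyr^8]BRU-2477) at 3.0 μCi/mL, washed, then kept in fresh medium. At 0, 15, 30, 60 and 120 min radioactivity split into membrane-bound, internalized and efflux fractions.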

in vitro = in vitro ADME, mouse
Method: Livers from 10 female Tac:NCr:Foxn1^nu/nu mice were excised, rinsed with ice cold PBS (no Ca^++ or Mg^++) and weighed. The tissues were minced with scissors in Petri dishes on ice with Tris buffered saline (Pierce BupH™ Tris buffered saline packs, #28376; 25 mM Tris, 150 mM NaCl, pH 7.2). After mincing, the tissues were dounce homogenized, and the total volume adjusted with ice cold Tris buffer (4 mL for every gram of excised tissue). The homogenate was centrifuged at ˜4000×g for 10 min at 4° C. The supernatants were aliquoted into Eppendorf tubes on ice (200 and 100 μl volumes) and stored at −80° C. Kidney homogenates were similarly prepared. […] The mixture was centrifuged at 4° C. for 20 min at 20,000×g to precipitate the protein; 10 μL (˜7.6 μCi) of the supernatant was injected into the HPLC for the analysis. […] Peaks at these retention times were also observed in the in vivo plasma sample (FIG. 1). […] The final concentration for the Lu-BRU-2813 in the homogenate sample solution was ˜0.4 mg/mL. After 60 min incubation, the sample was immediately cooled on ice, and then 0.48 mL of ice-cooled methanol was added. The sample was centrifuged at 4° C. for 20 min at 20,000×g to precipitate the protein. The supernatant was collected, concentrated using a speed vacuum to remove organic solvents, and then analyzed by LC/MS.

[4] = test system: PC-3 (human prostate cancer) cells; experiment: Internalization/efflux studies in PC-3 cells; format: cell-based
Method: Internalization/Efflux Studies: The internalization and efflux studies were carried out following the general procedure. Basically, ^177Lu-LHRH II or ^125I-LHRH II ([^125I-Tyr^8]BRU-2477) (75 uL, 3.0 μCi/mL) was added to the EFO-27 or PC-3 cells. The cells were incubated for 40 min at 37° C. The unbound radioactivity was washed off (4×). Following addition of fresh medium, the cells were further incubated for up to 2 h. At various time points (15, 30, 60 & 120 min) the distribution of radioactivity (membrane-bound, internalized, and efflux) was determined
To determine whether prostate cancer cells (PC-3) behave differently from EFO-27 cells, internalization and efflux studies were carried out with ^177Lu-BRU-2813 using both cell lines.

[5] = female, Tac:NCr:Foxn1nu/nu, mouse, tissue homogenate, pH 7.2

With `N=C(N)NCCC[C@H](NC(=O)[C@@H](Cc1ccc2ccccc2c1)NC(=O)CN1CCN(CC(=O)O)CCN(CC(=O)O)CCN(CC(=O)O)CC1)C(=O)N[C@@H](Cc1c[nH]c2ccccc12)C(=O)N[C@@H](CO)C(=O)N[C@@H](Cc1cnc[nH]1)C(=O)N[C@H](CCCNC(=N)N)C(=O)N[C@@H](Cc1c[nH]c2ccccc12)C(=O)N[C@@H](Cc1ccc(C(=O)c2ccccc2)cc1)C(=O)N1CCC[C@H]1C(=O)NNC(N)=O` [177Lu-BRU-2813, Lu-DOTA-Dnal2-Arg-Trp-Ser-His-Darg-Trp-Bpa4-Pro-azaGly-NH2, metal not drawn] the “direct binding / uptake” value [1] was 19%, the “direct binding / uptake” value ([1]; listed as Lu-BRU-2813) was 18.8% and the “radioactivity remaining in the plasma still in parent form” value [2] was 66%. The “metabolism in liver homogenate” value [3] was “Extensive metabolism was seen”, the remaining at 10 min, 2.3 mCi/mL [3, 5] was 18.3% and the remaining at 1 h, 0.3 mg/mL [3, 5] was 12.4 ± 8.7%. The “cell surface (membrane) binding” value (EFO-27 cells; % of the total bound) was 60-65%, the initial internalization (EFO-27 cells; % of total bound (cell-associated) radioactivity, T=0) was 27% and the efflux (EFO-27 cells; in 1 h) was 75-80%. For the same compound, the “metabolism in kidney homogenate” value (in vitro) was “Extensive metabolism was seen”, the remaining at 10 min, 2.3 mCi/mL (in vitro; female, Tac:NCr:Foxn1nu/nu, mouse, other tissue homogenate, pH 7.2) was 2.4% and the initial internalization ([4]; % of cell-associated counts) was 25%. For the same compound, the cell surface activity ([4]; % of the total bound) was 60-65% and the efflux ([4]; in 1 h) was 75-80%.
